Results published in patent publication EP2261258A1, “MCSP-aligned scFv antibody fragments and use of same” (Schuler, Gerold, priority 2009, dated 2010).
Like-named read-outs stand apart in the source and are kept apart here. One block for each molecule: values may come before it.

What was measured:
[1] = melanoma patients, cited from earlier work
AML = conditions: Bross et al. 2001; cited from earlier work
[2] = target: Melanom-assoziiertes Chondroitinsulfat Proteoglykan (MCSP) (human) (UniProt Q6UVK1); assay: flow cytometry, saturation binding on A2058 melanoma cells, half-maximal saturation concentration
[3] = target: Melanom-assoziiertes Chondroitinsulfat Proteoglykan (MCSP) (human) (UniProt Q6UVK1); assay: ratio of KD values, flow cytometry on A2058 cells

Molecule: CN(C)/N=N/c1[nH]cnc1C(N)=O [Dacarbazin, Dimethyl-trizeno-imidazol-Carboxamid]
- Ansprechraten ([1]; according to newer studies (Avril et al. 2004)): ~7%
- Ansprechraten ([1]; as given in most studies): 10 - 20%

Molecule: GO: gegen CD33 gerichteter humanisierter Antikörper gekoppelt an Calicheamycin
- Patienten, die ansprechen (AML): ~30%
- mittlere rückfallfreie Überlebenszeit (AML): 6,8 Monate

Continued, values first:

- Kd [2]: 23.3 nM
B1: scFv-Fragment MCSP (scFv)
scFv: MADYKDIVMTQSPASLAVSLGQRATISCRASESVDSYGNSFMHWYQQKPGQPPKLLIYLASNLESGVPARFSGSGSRTDFTLTIDPVEADDAATYYCQQNNEDPLTFGSGTKLETKRGGGGSGGGGSGGGGSGGGGSQVQLKQSGPELVKPGASVKISCKASGYAFSRSWMNWVKQRPGQGLEWIGRIYPGDGDTNYNGKFKGKATLTADKSSSTAYMQVSSLTSVDSAVYFCARGNTVVVPYTMDYWGQGTSVTVPSASGADHHHHHH

- Kd [2]: 1.65 nM
- fold improvement of affinity against the original scFv MCSP [3]: 14 fold
B2: scFv-Fragment MCSP HL (scFv)
scFv: MADYKQVKLQQSGPELVKPGASVKISCKASGYAFSRSWMNWVKQRPGQGLEWIGRIYPGDGDTNYNGKFKGKATLTADKSSSTAYMQVSSLTSVDSAVYFCARGNTVVVPYTMDYWGQGTTVTVSSGGGGSGGGGSGGGGSDIELTQSPASLAVSLGQRATISCRASESVDSYGNSFMHWYQQKPGQPPKLLIYLASNLESGVPARFSGSGSRTDFTLTIDPVEADDAATYYCQQNNEDPLTFGGGTKLELKRSASGADHHHHHH
